Measurements as given in patent US7160992B2, “Amino-modified polysaccharides and methods of generating and using same” (Yeda Research and Development Co., Ltd., priority 2003, dated 2007).
Where “and” joins values, the source holds several entries; their conditions need not be identical. Equal values may be shown once.

Key:
[1] = test system: HIV-1 isolates; assay: Inhibition of HIV-1 infection (cMAGI reporter cells, MT2 syncytium formation); assay type: cell-based; settings: up to 100 μM
Method: Aliquots of cell-free culture supernatants were used as viral inoculum. […] Cytotoxicity determinations were carried out in MT2 and H9 cells by trypan blue exclusion assay.
Viral inhibition was determined by incubating cMAGI HIV-1 reporter cells with 0.2–0.5 multiplicity of infection of HIV-1IIIB for 4 days at 37° C. in the presence or absence of various concentration of AACs, prior to counting the number of HIV-1 infected cells (stained blue). The cytopathic effects of the viral infection of MT2 cells were also analyzed by microscopic assessment of syncytium formation. These latter data were obtained by analysis of duplicate samples by two independent observers.

[2] = target: T1, CXCR4 (Homo sapiens, UniProt P61073); assay: Inhibition of anti-CXCR4 mAb 12G5 binding to cells, flow cytometry; assay type: cell-based; settings: for inhibition of 12G5 mAb binding to CXCR4 (in words): 20 μM aminoglycoside antibiotic; for reduction of 12G5 mAb binding to the cells: 10 μM AAC, PM1 cells, 30 min at 4° C.
T1 construct: endogenous in cells; host or cells: PM1 cells and PBMC
T1 sequence (P61073 whole entry): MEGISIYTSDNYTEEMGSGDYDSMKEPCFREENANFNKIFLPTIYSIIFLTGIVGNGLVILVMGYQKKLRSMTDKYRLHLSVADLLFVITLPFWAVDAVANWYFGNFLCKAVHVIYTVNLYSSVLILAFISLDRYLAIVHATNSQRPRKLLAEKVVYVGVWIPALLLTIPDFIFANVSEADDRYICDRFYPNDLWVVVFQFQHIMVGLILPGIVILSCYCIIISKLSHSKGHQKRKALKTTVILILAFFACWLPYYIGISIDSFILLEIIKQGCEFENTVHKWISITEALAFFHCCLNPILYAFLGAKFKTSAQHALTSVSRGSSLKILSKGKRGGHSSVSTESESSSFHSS
Method: FIGS. 11a–d are graphs depicting the binding of AACs to CXCR4 in the presence of anti CXCR4 antibody (12G5). PM1 cells were incubated with PE-conjugated isotype control mAb, PE-anti CXCR4 conjugated mAb (12G5) alone, or in the presence of the indicated AACs for 30 min at 4° C. The cells were then washed twice with PBS and analyzed by flow cytometry. The MFI values are shown in parenthesis.
Interaction of AACs with CXCR4 was determined by flow cytometry (FACScan, Becton Dickinson) as described recently (Litovchick et al., 2001, supra). Briefly, 0.5×10^6 cells were washed in ice-cold PBS containing 0.1% sodium azide (wash buffer) and incubated at 4° C. with anti-CXCR4 mAb, 12G5 (PharMingen, San Diego, Calif.) conjugated to phycoerithrine (PE), in the absence or presence of different concentrations of the AACs. After 30 min of incubation, the cells were washed with ice-cold wash buffer and fixed in PBS containing 1% paraformaldehyde. Non-specific fluorescence was assessed by using isotype-matched control. For each sample 10,000 events were acquired. Data were analyzed and processed using CellQuest™ software (Becton Dickinson).

[3] = test system: RRE IIB; assay: Fluorescence anisotropy of aminoglycoside binding to RRE IIB, fluorescein-Rev34-50 tracer (literature); design: species or system HIV-1
[4] = target: RRE IIB; settings: fluorescein-Rev34-50 as fluorescent tracer; read-out: KD of aminoglycoside binding to RRE IIB; cited from earlier work
[5] = test system: HIV-1IIIB wild type; assay: Inhibition of HIV-1IIIB wild type in MT2 or cMAGI cells; assay type: cell-based; settings: HIV-1IIIB wt; mean and standard deviation of three separate experiments; read-out: EC50, Wild-type
Text: The cMAGI assay is based on the ability of HIV-1 TAT to transactivate the expression of an integrated β-galactosidase reporter gene driven by the HIV-LTR [Chackerian, B. et al., 1997. J Virol. 71: 3932–3939; Collins, K. B. et al., 2000. Nat. Med. 6: 475–479]. The β-galactosidase reporter has been modified to remain localized in the nucleus where it can be detected with the X-gal substrate as an intense nuclear stain within a few days of infection. The X-gal substrate used was 5-bromo-4-chloro-3-indoyl-beta-D-galactopyranoside. HIV1IIIB was propagated by subculture in MT2 as described previously [Litovchick (2001) Supra]. Aliquots of cell-free culture supernatants were used as viral inoculum. […] The cytopathic effects of the viral infection of MT2 cells were analyzed by microscopic assessment of syncytium formation. These latter data were obtained by analysis of duplicate samples by two independent observers. HIV-1 infection of cMAGI cells was determined by counting the number of HIV-1 infected cells (stained blue).

[6] = target: TAR RNA; assay: Fluorescence anisotropy: RhdRev binding and AAC competition for TAR RNA; design: species or system HIV-1; settings: for Kd: competition of AACs with RhdRev (10 nM) for TAR RNA (20 nM) binding, 85 mM NaCl; for IC50: competition of AACs with RhdRev for TAR RNA binding
[7] = target: RRE IIB RNA; assay: Fluorescence anisotropy: RhdRev binding and AAC competition for RRE IIB RNA; design: species or system HIV-1; settings: for Kd: competition of AACs with RhdRev (10 nM) for RRE IIB RNA (20 nM) binding, 85 mM NaCl; for IC50: competition of AACs with RhdRev for RRE IIB RNA binding
[8] = test system: MT-2 cells; assay: Cellular uptake competition of AACs with NeoR6-FITC, flow cytometry; assay type: cell-based
Method: Following 15 minutes of incubation at room temperature, the cells were washed twice with ice-cold PBS and fixed in PBS containing 1% paraformaldehyde. Fluorescence was analyzed using flow cytometry.
After 5 or 15 min of incubation at room temperature, the cells were washed twice with ice-cold PBS and fixed in PBS containing 1% paraformaldehyde. The fluorescence was then analyzed by flow cytometry (FACScan, Becton Dickinson Imunocytometry Systems, San Jose, Calif., USA). For each sample 10,000 events were acquired. Data were analyzed and processed.

[9] = target: T2, CCR5 (Homo sapiens, UniProt P51681); settings: PHA stimulated peripheral blood lymphocytes; cited from earlier work
T2 construct: in PHA stimulated peripheral blood lymphocytes (PBL); host or cells: PHA stimulated peripheral blood lymphocytes (PBL)
T2 sequence (P51681 whole entry): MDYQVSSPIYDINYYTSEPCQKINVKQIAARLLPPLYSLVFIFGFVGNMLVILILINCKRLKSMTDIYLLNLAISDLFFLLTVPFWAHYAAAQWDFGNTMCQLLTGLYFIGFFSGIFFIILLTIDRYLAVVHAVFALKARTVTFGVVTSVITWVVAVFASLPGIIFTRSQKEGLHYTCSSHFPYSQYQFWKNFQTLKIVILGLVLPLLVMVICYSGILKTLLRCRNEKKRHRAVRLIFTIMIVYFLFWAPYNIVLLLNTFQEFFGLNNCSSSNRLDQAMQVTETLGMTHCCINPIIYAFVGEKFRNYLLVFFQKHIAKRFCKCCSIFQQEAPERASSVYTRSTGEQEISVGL

[10] = target: T3, CD4 (Homo sapiens, UniProt P01730); settings: PHA stimulated peripheral blood lymphocytes; cited from earlier work
T3 construct: in PHA stimulated peripheral blood lymphocytes (PBL); host or cells: PHA stimulated peripheral blood lymphocytes (PBL)

[11] = test system: lymphocytes, PBMC and neurons; settings: cited from earlier work
[12] = test system: U38, PM1, H9 cells and PBMC; assay: Cellular uptake of AAC-FITC fluorescent probes, fluorescence microscopy; assay type: cell-based; settings: 0.5 μM, 10 minutes of incubation
Method: Images were obtained using a Zeiss Axiophot microscope.
Cellular uptake using AAC fluorescent probes—U38, PM1, H9 cells and PBMC(10^5) were incubated for 20 minutes at room temperature in 100 μl RPMI 1640 medium (Gibco-BRL, Life-Technologies, UK) including AAC-FITC derivatives as indicated at a final concentration of 0.5 μM. Cells were washed twice, resuspended in 100 μl medium and analyzed with a Zeiss Axiophot fluorescent microscope.

[13] = test system: PM1 cells; assay: Inhibition of FITC-labeled AAC uptake by SDF-1α, flow cytometry; assay type: cell-based; settings: for MFI of FITC-AAC uptake: background MFI of 10
Method: Following 20 minutes at room temperature the cells were washed twice with PBS and analyzed by flow cytometry.
Following 30 minutes of incubation, cells were washed with ice-cold wash buffer and analyzed by flow cytometry as described above.

[14] = test system: cMAGI cells; assay: Competition between FITC-labelled AACs and RANTES; assay type: cell-based; settings: 2.5 mM RANTES
Method: Competition between FITC labelled AACs (1 mM) and RANTES (2.5 mM, Pepro Tech Inc., New Jersey, USA) was effected in 2×10^5 cMAGI cells. Following 30 min of incubation, cells were washed with ice-cold wash buffer and analysed by flow cytometry as described above.

NC[C@H]1O[C@H](O[C@H]2[C@H](O)[C@@H](O)[C@H](N)C[C@@H]2N)[C@H](N)[C@@H](O)[C@@H]1O [neamine, reference compound]
antiviral activity (in words) [1]: did not reveal antiviral activity
inhibition of 12G5 mAb binding to CXCR4 (in words) [2]: did not inhibit

NC[C@@H]1O[C@H](O[C@H]2[C@@H](O)[C@H](O[C@@H]3[C@@H](O)[C@H](N)C[C@H](N)[C@H]3O[C@H]3O[C@H](CN)[C@@H](O)[C@H](O)[C@H]3N)O[C@@H]2CO)[C@H](N)[C@@H](O)[C@@H]1O [neomycin, neomycin B]
times weaker than NeoR1 binding to RRE IIB ([3]; comparator NeoR1): 6
times weaker than NeoR2 binding to RRE IIB ([3]; comparator NeoR2): 7
times weaker than NeoR6 binding to RRE IIB ([3]; comparator NeoR6): ~550
antiviral activity (in words) [1]: did not reveal antiviral activity
inhibition of 12G5 mAb binding to CXCR4 (in words) [2]: did not inhibit
Kd [4]: 1180 nM

Nc1ccn([C@H]2CC[C@@H](CO)O2)c(=O)n1 [ddC, Dideoxycytosine, reference compound]
EC50 [5]: 300 ± 100 nM

CC(=O)O.N=C(N)NCCCC(N)C(=O)NCC1OC(OC2C(CO)OC(OC3C(O)C(N)CC(N)C3OC3OC(CO)C(O)C(O)C3N)C2O)C(N)C(O)C1O (centres unmarked) [ParomR1, argininamido-paramomycin conjugate]
Kd [6]: > 500 nM
IC50 [6]: > 500 nM
Kd [7]: 254 ± 7.8 nM
IC50 [7]: 407 ± 41 nM
competition with NeoR6-FITC uptake (in words) ([8]; 100 fold excess of non-labeled AAC): did not compete
reduction of 12G5 mAb binding to the cells [2]: 16%

NC(N)=NCCC[C@H](N)C(=O)NC[C@H]1O[C@H](O[C@H]2C(O)[C@@H](O[C@H]3O[C@H](CO)[C@@H](O)[C@H](NC(=O)[C@@H](N)CCCN=C(N)N)[C@H]3O)[C@H](NC(=O)[C@@H](N)CCCN=C(N)N)C[C@@H]2NC(=O)[C@@H](N)CCCN=C(N)N)[C@H](O)[C@@H](O)[C@@H]1O (some centres unmarked) [R4K]
inhibition of binding of 2D7, a mAb directed to CCR5 [9]: neither R3G nor R4K or NeoR6 inhibit the binding
inhibition of binding of anti CD4 antibody (Leu 3a) [10]: neither R3G nor R4K or NeoR6 inhibit the binding
accumulation in cells [11]: accumulate in different cell types

CC(=O)O.N=C(N)NCCCC(N)C(=O)NCC1OC(OC2C(CO)OC(OC3C(O)C(NC(=O)C(N)CCCNC(=N)N)CC(NC(=O)C(N)CCCNC(=N)N)C3OC3OC(CO)C(O)C(O)C3NC(=O)C(N)CCCNC(=N)N)C2O)C(NC(=O)C(N)CCCNC(=N)N)C(O)C1O (centres unmarked) [ParomR5, pentaargininamido-paromomycin conjugate]
Kd [6]: 15 nM and 15.1 nM
IC50 [6]: 34.3 ± 5.7 nM
competition with RhdRev for TAR RNA binding (in words) ([6]; up to 20 μM of AAC): efficiently competed
Kd [7]: 96 nM and 95.9 nM
IC50 [7]: 149 ± 12.3 nM
times weaker than NeoR6, RRE IIB binding ([7]; ratio of KD to that of NeoR6): about 4
cellular uptake of FITC-labeled AAC by PM1 cells [12]: uptaken by PM1 cells
inhibition of NeoR6-FITC uptake, less efficient than NeoR6 ([8]; 40 fold excess of non-labeled AAC): about 50%
inhibition of NeoR6-FITC uptake, less affinity than NeoR6 ([8]; 100 fold excess of non-labeled AAC over 0.5 μM NeoR6-FITC): about 50%
reduction of 12G5 mAb binding to the cells [2]: 81%
inhibition of mAb 12G5 or SDF-1α binding to CXCR4, % of the NeoR6 activity ([2]; in comparison to NeoR6): 90%
MFI of FITC-AAC uptake ([13]; 62.5 nM SDF-1α): 83
inhibition of cell uptake by SDF-1α ([13]; 125 nM SDF-1α, PM1 cells): about 50%
MFI of FITC-AAC uptake ([13]; 125 nM SDF-1α): 59
MFI of FITC-AAC uptake ([13]; 250 nM SDF-1α): 53
MFI of FITC-AAC uptake ([13]; without SDF-1α): 104
effect of RANTES on uptake of FITC derivative [14]: did not affect uptake
